Experimental data as given in ChEMBL document CHEMBL4257082, “Nhe3-binding compounds and methods for inhibiting phosphate transport” (2016).

Test system: not listed separately
Test: Oral bioavailability in human
Format: ADME, organism-based
Settings: in vivo

Row | bioavailability [%] | Structure (SMILES)
1 | 55 | NC[C@H]1CC[C@H](C(=O)O)CC1 [TRANEXAMIC ACID]
2 | 12 | O=C(O)c1cc(/N=N/c2ccc(S(=O)(=O)Nc3ccccn3)cc2)ccc1O [SULFASALAZINE]
3 | 95 | CC(=O)Nc1ccc(OCC(O)CNC(C)C)cc1 (centres undefined) [PRACTOLOL]
4 | 0.6 | OC[C@H]1O[C@@H](O[C@@H]2[C@@H](CO)O[C@](O)(CO)[C@H]2O)[C@H](O)[C@@H](O)[C@H]1O (mixture of isomers) [LACTULOSE]
5 | 26 | OC[C@@H](O)[C@@H](O)[C@H](O)[C@H](O)CO [MANNITOL]
6 | 36 | CCN1CCCC1CNC(=O)c1cc(S(N)(=O)=O)ccc1OC (centres undefined) [SULPIRIDE]
7 | 96 | C=CCc1ccccc1OCC(O)CNC(C)C (centres undefined) [ALPRENOLOL]
8 | 17 | O=C(O)P(=O)(O)O [FOSCARNET]
9 | 64 | Cc1ccccc1N1C(=O)c2cc(S(N)(=O)=O)c(Cl)cc2NC1C (centres undefined) [METOLAZONE]
10 | 0.3 | OC[C@H]1O[C@H](OC[C@H]2O[C@H](O[C@]3(CO)O[C@H](CO)[C@@H](O)[C@@H]3O)[C@H](O)[C@@H](O)[C@@H]2O)[C@H](O)[C@@H](O)[C@H]1O [RAFFINOSE]
11 | 2.3 | O=C(O)c1cc(/N=N/c2ccc(O)c(C(=O)O)c2)ccc1O [OLSALAZINE]
12 | 97 | C=CCOc1ccccc1OCC(O)CNC(C)C (centres undefined) [OXPRENOLOL]

Row | Structure (SMILES) | bioavailability [%]
13 | Cc1cc(=O)n(-c2ccccc2)n1C [ANTIPYRINE] | 97
14 | CC(C)NCC(O)COc1cccc2[nH]ccc12 (centres undefined) [PINDOLOL] | 92

Test system: Rattus norvegicus
Test: In vivo inhibition of NHE3 in Sprague-Dawley rat assessed as inhibition of sodium absorption from intestinal lumen by measuring urinary sodium concentration at 1 mg/kg, po via gavage measured after 16 hrs relative to control
Format: functional
Parameters: scale not given: the % may be the effect or the level left
Settings: not given

Row | Structure (SMILES) | Activity [%]
15 | CN1Cc2c(Cl)cc(Cl)cc2[C@H](c2cccc(S(=O)(=O)NCCOCCOCCNC(=O)CCC(CCC(=O)NCCOCCOCCNS(=O)(=O)c3cccc([C@@H]4CN(C)Cc5c(Cl)cc(Cl)cc54)c3)(CC(=O)NCCOCCOCCNS(=O)(=O)c3cccc([C@@H]4CN(C)Cc5c(Cl)cc(Cl)cc54)c3)NC(=O)CCC(=O)O)c2)C1 | 49
16 | CN1Cc2c(Cl)cc(Cl)cc2[C@@H](c2cccc(S(=O)(=O)NCCOCCOCCNC(=O)N(C)CCCN(CCCN(C)C(=O)NCCOCCOCCNS(=O)(=O)c3cccc([C@@H]4CN(C)Cc5c(Cl)cc(Cl)cc54)c3)C(=O)NCCOCCOCCNS(=O)(=O)c3cccc([C@@H]4CN(C)Cc5c(Cl)cc(Cl)cc54)c3)c2)C1 | 88

Test system: Rattus norvegicus
Test: In vivo inhibition of NHE3 in Sprague-Dawley rat assessed as inhibition of sodium absorption from intestinal lumen by measuring urinary sodium concentration at 10 mg/kg, po via gavage measured after 16 hrs relative to control
Format: functional
Parameters: scale not given: the % may be the effect or the level left
Settings: not given

Row | Structure (SMILES) | Activity [%]
17 | O=C(NCCCCNC(=O)NCCOCCOCCNS(=O)(=O)c1ccc(O[C@H]2c3cc(Cl)cc(Cl)c3C[C@@H]2N2CC[C@@H](O)C2)cc1)NCCOCCOCCNS(=O)(=O)c1ccc(O[C@H]2c3cc(Cl)cc(F)c3C[C@@H]2N2CC[C@@H](O)C2)cc1 | 104
18 | CN1Cc2c(Cl)cc(Cl)cc2[C@@H](c2cccc(S(=O)(=O)NCCOCCOCCNC(=O)N(C)CCCN(CCCN(C)C(=O)NCCOCCOCCNS(=O)(=O)c3cccc([C@@H]4CN(C)Cc5c(Cl)cc(Cl)cc54)c3)C(=O)NCCOCCOCCNS(=O)(=O)c3cccc([C@@H]4CN(C)Cc5c(Cl)cc(Cl)cc54)c3)c2)C1 | 28
19 | CN1Cc2c(Cl)cc(Cl)cc2[C@H](c2cccc(S(=O)(=O)NCCOCCOCCNC(=O)NCCN(CCNC(=O)NCCOCCOCCNS(=O)(=O)c3cccc([C@@H]4CN(C)Cc5c(Cl)cc(Cl)cc54)c3)C(=O)CCCOCCOCCOCCOCCC(=O)N(CCNC(=O)NCCOCCOCCNS(=O)(=O)c3cccc([C@@H]4CN(C)Cc5c(Cl)cc(Cl)cc54)c3)CCNC(=O)NCCOCCOCCNS(=O)(=O)c3cccc([C@@H]4CN(C)Cc5c(Cl)cc(Cl)cc54)c3)c2)C1 | 47
20 | CN1Cc2c(Cl)cc(Cl)cc2[C@H](c2ccc(S(=O)(=O)NCCOCCOCCNC(=O)NCCCCNC(=O)NCCOCCOCCNS(=O)(=O)c3cccc([C@@H]4CN(C)Cc5c(Cl)cc(Cl)cc54)c3)cc2)C1.Cl.Cl | 90
21 | CN1Cc2c(Cl)cc(Cl)cc2[C@H](c2cccc(S(=O)(=O)NCCOCCOCCNC(=O)CN3CCN(CC(=O)NCCOCCOCCOCCNS(=O)(=O)c4cccc([C@@H]5CN(C)Cc6c(Cl)cc(Cl)cc65)c4)CCN(CC(=O)NCCOCCOCCOCCNS(=O)(=O)c4cccc([C@@H]5CNCc6c(Cl)cc(Cl)cc65)c4)CCN(CC(=O)NCCOCCOCCOCCNS(=O)(=O)c4cccc([C@@H]5CN(C)Cc6c(Cl)cc(Cl)cc65)c4)CC3)c2)C1 | 82
22 | CCCCCCCCOCCOCCOCCOCCCOCCOC(=O)NCCOCCOCCOCCNS(=O)(=O)c1cccc([C@@H]2CN(C)Cc3c(Cl)cc(Cl)cc32)c1 | 86
23 | CN1Cc2c(Cl)cc(Cl)cc2[C@@H](c2ccc(S(=O)(=O)NCCOCCOCCNC(=O)NCCCCNC(=O)NCCOCCOCCNS(=O)(=O)c3cccc([C@@H]4CN(C)Cc5c(Cl)cc(Cl)cc54)c3)cc2)C1.Cl.Cl | 68

Test system: Rattus norvegicus
Test: In vivo inhibition of NHE3 in Sprague-Dawley rat assessed as inhibition of sodium absorption from intestinal lumen by measuring urinary sodium concentration at 3 mg/kg, po via gavage measured after 16 hrs relative to control
Format: functional
Parameters: scale not given: the % may be the effect or the level left
Settings: not given

Row | Structure (SMILES) | Activity [%]
24 | CN1Cc2c(Cl)cc(Cl)cc2[C@H](c2cccc(S(=O)(=O)NCCOCCOCCNC(=O)CCC(CCC(=O)NCCOCCOCCNS(=O)(=O)c3cccc([C@@H]4CN(C)Cc5c(Cl)cc(Cl)cc54)c3)(CC(=O)NCCOCCOCCNS(=O)(=O)c3cccc([C@@H]4CN(C)Cc5c(Cl)cc(Cl)cc54)c3)NC(=O)CCC(=O)O)c2)C1 | 12
25 | CN1Cc2c(Cl)cc(Cl)cc2[C@H](c2ccc(S(=O)(=O)N(C)CCOCCOCCNC(=O)CCN(CCC(=O)NCCOCCOCCN(C)S(=O)(=O)c3cccc([C@@H]4CN(C)Cc5c(Cl)cc(Cl)cc54)c3)CCC(=O)NCCOCCOCCN(C)S(=O)(=O)c3cccc([C@@H]4CN(C)Cc5c(Cl)cc(Cl)cc54)c3)cc2)C1 | 64
26 | CN1Cc2c(Cl)cc(Cl)cc2[C@H](c2cccc(S(=O)(=O)NCCOCCNC(=O)CCC(CCC(=O)NCCOCCOCCNS(=O)(=O)c3cccc([C@@H]4CN(C)Cc5c(Cl)cc(Cl)cc54)c3)(CCC(=O)NCCOCCOCCNS(=O)(=O)c3cccc([C@@H]4CN(C)Cc5c(Cl)cc(Cl)cc54)c3)NC(=O)[C@H]3CCCC[C@@H]3C(=O)O)c2)C1 | 63
27 | CC(=O)C(CCNC(=O)NCCOCCOCCNS(=O)(=O)c1cccc([C@@H]2CN(C)Cc3c(Cl)cc(Cl)cc32)c1)(CCNC(=O)NCCOCCOCCNS(=O)(=O)c1cccc([C@@H]2CN(C)Cc3c(Cl)cc(Cl)cc32)c1)CCNC(=O)NCCOCCOCCNS(=O)(=O)c1cccc([C@@H]2CN(C)Cc3c(Cl)cc(Cl)cc32)c1 | 42
28 | CN1Cc2c(Cl)cc(Cl)cc2[C@@H](c2cccc(S(=O)(=O)NCCOCCOCCNC(=O)N(C)CCCN(CCCN(C)C(=O)NCCOCCOCCNS(=O)(=O)c3cccc([C@@H]4CN(C)Cc5c(Cl)cc(Cl)cc54)c3)C(=O)NCCOCCOCCNS(=O)(=O)c3cccc([C@@H]4CN(C)Cc5c(Cl)cc(Cl)cc54)c3)c2)C1 | 55
29 | CN1Cc2c(Cl)cc(Cl)cc2[C@H](c2ccc(S(=O)(=O)NCCOCCOCCNCCCC(CCC(=O)NCCOCCOCCNS(=O)(=O)c3cccc([C@@H]4CN(C)Cc5c(Cl)cc(Cl)cc54)c3)(CCC(=O)NCCOCCOCCNS(=O)(=O)c3cccc([C@@H]4CN(C)Cc5c(Cl)cc(Cl)cc54)c3)NC(=O)N3CCN(CCOCCO)CC3)cc2)C1 | 31
